Source: patent US20110294772A1, “USE OF CYCLOSQUARAMIDE COMPOUNDS AS ANTI-TUMOUR AGENTS” (priority 2008, published 2011)

system: Jeko-1; assay: cell viability assay; assay type: cell-based, human; conditions: Homo sapiens, JeKo-1, 48 h, cell viability, total incubation period 48 h; read-out: IC50 (μM) against Jeko-1 cells
Method: The IC50 in cell viability assays were determined for some of the macrocycles prepared in Jeko-1 (B-cell lymphoma (MCL) type cells. With a total incubation period of 48 h.

Q: Which IC50 does the source give for `CSCCC1Nc2c(c(=O)c2=O)NCCCN(C)CCCNc2c(c(=O)c2=O)NCCCN(C)CCCNc2c(c(=O)c2=O)NCCCN(C)CCCNc2c(c(=O)c2=O)NCCCN(C)CCCNc2c(c(=O)c2=O)NCCCNC1=O` (stereo not drawn) [Compound 3] here?
A: Its IC50 is 34 µM.

Q: With `CSCCC1Nc2c(c(=O)c2=O)NCCCN(C)CCCNc2c(c(=O)c2=O)NCCCN(C)CCCNc2c(c(=O)c2=O)NCCCN(C)CCCNc2c(c(=O)c2=O)NCCCN(C)CCCNc2c(c(=O)c2=O)NCCCN(C)CCCNc2c(c(=O)c2=O)NCCCNC1=O` (stereo not drawn) [Compound 4] as the compound, how does the IC50 read?
A: The IC50 was 24 µM.

same assay, conditions: cell viability, total incubation period 48 h; read-out: IC50 (μM) against Jeko-1 cells

Q: With `CN1CCCNc2c(c(=O)c2=O)NCCCN(C)CCCNc2c(c(=O)c2=O)NCCCN(C)CCCNc2c(c(=O)c2=O)NCCCN(C)CCCNc2c(c(=O)c2=O)NCCCN(C)CCCNc2c(c(=O)c2=O)NCCCN(C)CCCNc2c(c(=O)c2=O)NCCC1` [Compound 1] as the compound, how does the IC50 read?
A: The IC50 was 27 µM.

Q: `CN1CCCNc2c(c(=O)c2=O)NCCCN(C)CCCNc2c(c(=O)c2=O)NCCCN(C)CCCNc2c(c(=O)c2=O)NCCCN(C)CCCNc2c(c(=O)c2=O)NCCCN(C)CCCNc2c(c(=O)c2=O)NCCCN(C)CCCNc2c(c(=O)c2=O)NCCC1` [Compound 2] was tested. Which IC50 did it give?
A: The IC50 was 45 µM.

Q: For `CN1CCCNc2c(c(=O)c2=O)NCCCN(C)CCCNc2c(c(=O)c2=O)NCCCN(C)CCCNc2c(c(=O)c2=O)NCCCN(C)CCCNc2c(c(=O)c2=O)NCCCN(C)CCCNc2c(c(=O)c2=O)NCCCN(C)CCCNc2c(c(=O)c2=O)NCCC1` [Compound 5], which IC50 is on record?
A: The IC50 was 50 µM.

Q: With `CN1CCCNc2c(c(=O)c2=O)NCCCN(C)CCCNc2c(c(=O)c2=O)NCCCN(C)CCCNc2c(c(=O)c2=O)NCCCN(C)CCCNc2c(c(=O)c2=O)NCCCN(C)CCCNc2c(c(=O)c2=O)NCCCN(C)CCCNc2c(c(=O)c2=O)NCCC1` [Compound 11] as the compound, how does the IC50 read?
A: The IC50 was 9.4 µM.
